Measurements taken from PubChem BioAssay (NCI).
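Values below derive from 48-hour exposures of cells grown in 96-well plates, with endpoints linearly interpolated between the two concentrations bracketing the appropriate inhibition level. TGI is the concentration that stops growth completely.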

Legend:
Assay in all cases: inhibition of tumour cell growth, NCI panel, 48 h
UACC-62 melanoma = test system: UACC-62 melanoma
SNB-75 CNS = test system: SNB-75 CNS
EKVX NSCLC = test system: EKVX NSCLC
SF-539 CNS = test system: SF-539 CNS
KM12 colon = test system: KM12 colon
CAKI-1 renal = test system: CAKI-1 renal
CCRF-CEM leukemia = test system: CCRF-CEM leukemia
MALME-3M melanoma = test system: MALME-3M melanoma
HOP-62 NSCLC = test system: HOP-62 NSCLC
DU-145 prostate = test system: DU-145 prostate
SF-295 CNS = test system: SF-295 CNS
SK-MEL-5 melanoma = test system: SK-MEL-5 melanoma
SW-620 colon = test system: SW-620 colon
T-47D breast = test system: T-47D breast
SK-MEL-2 melanoma = test system: SK-MEL-2 melanoma
RPMI-8226 leukemia = test system: RPMI-8226 leukemia
OVCAR-8 ovarian = test system: OVCAR-8 ovarian
NCI-H460 lung = test system: NCI-H460 lung
786-0 renal = test system: 786-0 renal
HOP-92 NSCLC = test system: HOP-92 NSCLC
TK-10 renal = test system: TK-10 renal
OVCAR-3 ovarian = test system: OVCAR-3 ovarian
NCI-H226 lung = test system: NCI-H226 lung
HCC-2998 colon = test system: HCC-2998 colon
MDA-MB-231 breast = test system: MDA-MB-231 breast
M14 melanoma = test system: M14 melanoma
PC-3 prostate = test system: PC-3 prostate
SNB-19 CNS = test system: SNB-19 CNS
HCT-15 colon = test system: HCT-15 colon
RXF 393 renal = test system: RXF 393 renal
HS 578T breast = test system: HS 578T breast
A498 renal = test system: A498 renal
NCI-H522 lung = test system: NCI-H522 lung
HCT-116 colon = test system: HCT-116 colon
BT-549 breast = test system: BT-549 breast
MDA-N = test system: MDA-N
SK-MEL-28 melanoma = test system: SK-MEL-28 melanoma
HT29 colon = test system: HT29 colon
A549 NSCLC = test system: A549 NSCLC
SR leukemia = test system: SR leukemia
K-562 leukemia = test system: K-562 leukemia
MCF7 breast = test system: MCF7 breast
SF-268 CNS = test system: SF-268 CNS
ACHN renal = test system: ACHN renal
IGROV1 ovarian = test system: IGROV1 ovarian
U251 CNS = test system: U251 CNS
UO-31 renal = test system: UO-31 renal
SN12C renal = test system: SN12C renal
MOLT-4 leukemia = test system: MOLT-4 leukemia
UACC-257 melanoma = test system: UACC-257 melanoma
HL-60(TB) leukemia = test system: HL-60(TB) leukemia
OVCAR-4 ovarian = test system: OVCAR-4 ovarian
LOX IMVI melanoma = test system: LOX IMVI melanoma

SMILES: Cc1cc(C)c2c(c1)C(=O)/C(=C/c1ccccc1C(=O)O)C2
- TGI (UACC-62 melanoma): > 100 µM
- TGI (SNB-75 CNS): > 100 µM
- TGI (EKVX NSCLC): > 100 µM
- TGI (SF-539 CNS): 89.3 µM
- TGI (KM12 colon): > 100 µM
- TGI (CAKI-1 renal): > 100 µM
- TGI (CCRF-CEM leukemia): > 100 µM
- TGI (MALME-3M melanoma): > 100 µM
- TGI (HOP-62 NSCLC): > 100 µM
- TGI (DU-145 prostate): > 100 µM
- TGI (SF-295 CNS): > 100 µM
- TGI (SK-MEL-5 melanoma): > 100 µM
- TGI (SW-620 colon): > 100 µM
- TGI (T-47D breast): > 100 µM
- TGI (SK-MEL-2 melanoma): > 100 µM
- TGI (RPMI-8226 leukemia): > 100 µM
- TGI (OVCAR-8 ovarian): > 100 µM
- TGI (NCI-H460 lung): > 100 µM
- TGI (786-0 renal): > 100 µM
- TGI (HOP-92 NSCLC): > 100 µM
- TGI (TK-10 renal): > 100 µM
- TGI (OVCAR-3 ovarian): > 100 µM
- TGI (NCI-H226 lung): > 100 µM
- TGI (HCC-2998 colon): > 100 µM
- TGI (MDA-MB-231 breast): > 100 µM
- TGI (M14 melanoma): > 100 µM
- TGI (PC-3 prostate): > 100 µM
- TGI (SNB-19 CNS): > 100 µM
- TGI (HCT-15 colon): > 100 µM
- TGI (RXF 393 renal): > 100 µM
- TGI (HS 578T breast): > 100 µM
- TGI (A498 renal): > 100 µM
- TGI (NCI-H522 lung): > 100 µM
- TGI (HCT-116 colon): > 100 µM
- TGI (BT-549 breast): > 100 µM
- TGI (MDA-N): > 100 µM
- TGI (SK-MEL-28 melanoma): > 100 µM
- TGI (HT29 colon): > 100 µM
- TGI (A549 NSCLC): > 100 µM
- TGI (SR leukemia): > 100 µM
- TGI (K-562 leukemia): > 100 µM
- TGI (MCF7 breast): > 100 µM
- TGI (SF-268 CNS): > 100 µM
- TGI (ACHN renal): > 100 µM
- TGI (IGROV1 ovarian): > 100 µM
- TGI (U251 CNS): > 100 µM
- TGI (UO-31 renal): > 100 µM
- TGI (SN12C renal): > 100 µM
- TGI (MOLT-4 leukemia): > 100 µM
- TGI (UACC-257 melanoma): > 100 µM
- TGI (HL-60(TB) leukemia): > 100 µM
- TGI (OVCAR-4 ovarian): > 100 µM
- TGI (LOX IMVI melanoma): > 100 µM
